Data reported in patent US10765681B2 (Academia Sinica, priority 2016, dated 2020).

Key:
[1] = system: H1975 lung cancer cells; experiment: MTT assay, growth of H1975 lung cancer cells; format: cell-based; details: Homo sapiens, NCI-H1975; H1975 lung cancer cell line; MTT; Table 3; read-out: IC50 H1975
[2] = system: MDA-MB231 breast cancer cells; experiment: MTT assay, growth of MDA-MB231 breast cancer cells; format: cell-based; details: Homo sapiens, MDA-MB-231, MDA-MB231 triple-negative breast cancer cell line, Table 3
Experimental: The inhibitory effect of the exemplary compounds against MDA-MB231 breast cancer cell and H1975 lung cancer cell was evaluated. The cytotoxic activity of test compounds was examined by performing a MTT assay.

Row | Compound | IC50 [1] [µM] | IC50 [2] [µM] | melting point
1 | CCOc1ccc(-c2nc(C#N)c3nc(Cl)n(-c4ccccc4OC)c3n2)cc1 [Compound 31a, 8-Chloro-2-(4-ethoxyphenyl)-9-(2-methoxyphenyl)purine-6-carbonitrile] | 0.7 | 1.6 | 215 to 217 °C
2 | CCOc1ccc(-c2nc(C#N)c3nc(N(C(C)=O)C(C)=O)n(-c4ccccc4OC)c3n2)cc1 [Compound 35a, N-Acetyl-N-[6-cyano-2-(4-ethoxyphenyl)-9-(2-methoxyphenyl)purin-8-yl]acetamide] | 14.7 | 11.9 | 210 to 212 °C
3 | CCOc1ccc(-c2nc(C(=N)NOC)c3c(n2)n(-c2ccccc2OC)c(=O)n3C)cc1 [Compound 21b, 2-(4-Ethoxyphenyl)-9-(2-methoxyphenyl)-7-methyl-8-oxopurine-6-(N-methoxy)carboximidamide] | 42 | 56 | 
4 | CCOc1ccc(-c2nc(C(=O)NN)c3[nH]c(=O)n(-c4ccccc4OC)c3n2)cc1 [Compound 20a, 2-(4-Ethoxyphenyl)-9-(2-methoxyphenyl)-8-oxopurine-6-carbohydrazide] | 60.9 | 65.3 | 273.7 to 274.5 °C
5 | CCOc1ccc(-c2nc(C#N)c3nc(OC(=O)OCc4ccccc4)n(-c4ccccc4OC)c3n2)cc1 [Compound 17c, Benzyl 6-cyano-2-(4-ethoxyphenyl)-9-(2-methoxyphenyl)purin-8-yl carbonate] | 34 | 48.6 | 228 to 230 °C
6 | CCOc1ccc(-c2nc(C(=N)NOC(=O)Oc3ccccc3)c3[nH]c(=O)n(-c4ccccc4OC)c3n2)cc1 [Compound 22b, 2-(4-Ethoxyphenyl)-9-(2-methoxyphenyl)-8-oxopurine-6-[N-(phenoxycarbonyl)oxy]carboximidamide] | 3.1 | 3.9 | 209 to 211 °C
7 | CCOc1ccc(-c2nc(C(=N)NO)c3nc(N)n(-c4ccccc4OC)c3n2)cc1 [Compound 36a, 8-Amino-2-(4-ethoxyphenyl)-9-(2-methoxyphenyl)purine-6-(N-hydroxy)carboximidamide] | 11.9 | 15.4 | 245 to 247 °C
8 | CCCCNC(=N)c1nc(-c2ccc(OCC)cc2)nc2c1[nH]c(=O)n2-c1ccccc1OC [Compound 13a, 2-(4-Ethoxyphenyl)-9-(2-methoxyphenyl)-8-oxopurine-6-(N-butyl)carboximidamide] | 79 | 11.6 | 375 to 377 °C
9 | CCOc1ccc(-c2nc(C#N)c3nc(OC(=O)OC(C)(C)C)n(-c4ccccc4OC)c3n2)cc1 [Compound 17b, Tert-butyl 6-cyano-2-(4-ethoxyphenyl)-9-(2-methoxyphenyl)purin-8-yl carbonate] | 13 | 22 | 278 to 280 °C
10 | C=CCn1c(=O)n(-c2ccccc2OC)c2nc(-c3ccc(OCC)cc3)nc(C(=N)NOC(=O)Oc3ccccc3)c21 [Compound 23a, 7-Allyl-2-(4-ethoxyphenyl)-9-(2-methoxyphenyl)-8-oxopurine-6-[N-(phenoxycarbonyl)oxy]carboximidamide] | 51.1 | 48.1 | 83 to 85 °C
11 | CCOc1ccc(-c2nc(C(N)=O)c3[nH]c(=O)n(-c4ccc([N+](=O)[O-])cc4)c3n2)cc1 [Compound 5k, 2-(4-Ethoxyphenyl)-9-(4-nitrophenyl)-8-oxopurine-6-carboxamide] | 7 | 26 | 307.6 to 309 °C
12 | CCOc1ccc(-c2nc(C(=O)NOC)c3[nH]c(=O)n(-c4ccccc4OC)c3n2)cc1 [Compound 19b, 2-(4-Ethoxyphenyl)-9-(2-methoxyphenyl)-8-oxopurine-6-(N-methoxy)carb oxamide] | 0.3 | 2.8 | 260.5 to 261.6 °C
13 | CCOc1ccc(-c2nc(-c3noc(C)n3)c3[nH]c(=O)n(-c4ccccc4OC)c3n2)cc1 [Compound 24a, 2-(4-Ethoxyphenyl)-9-(2-methoxyphenyl)-6-(5-methyl-1,2,4-oxadiazol-3-yl)purin-8-one] | 17 | 64 | 291 to 293 °C
14 | CCOc1ccc(-c2nc(C#N)c3[nH]c(=O)n(-c4ccc(C(=O)OC)cc4)c3n2)cc1 [Compound 12b, 2-(4-Ethoxyphenyl)-9-(4-methoxycarbonylphenyl)-8-oxopurine-6-carbonitrile] | 9.8 | 3.9 | 311.1 to 312.2 °C
15 | CCOc1ccc(-c2nc(C#N)c3[nH]c(=O)n(-c4ccc([N+](=O)[O-])cc4)c3n2)cc1 [Compound 12d, 2-(4-Ethoxyphenyl)-9-(4-nitrophenyl)-8-oxopurine-6-carbonitrile] | 6.2 | 2.6 | 293.2 to 294.8 °C
16 | CCOc1ccc(-c2nc(C(=N)NOC(=O)OCc3ccccc3)c3[nH]c(=O)n(-c4ccccc4OC)c3n2)cc1 [Compound 22a, 2-(4-Ethoxyphenyl)-9-(2-methoxyphenyl)-8-oxopurine-6-[N-(benzyloxycarbonyl)oxy]carboximidamide] | 3.1 | 3.9 | 246 to 248 °C
17 | CCOc1ccc(-c2nc(C#N)c3[nH]c(=O)n(-c4cccc([N+](=O)[O-])c4)c3n2)cc1 [Compound 12e, 2-(4-Ethoxyphenyl)-9-(3-nitrophenyl)-8-oxopurine-6-carbonitrile] | 4.1 | 3.5 | 296.1 to 297.8 °C
18 | CCOc1ccc(-c2nc(C(=O)O)c3nc(S)n(-c4ccccc4)c3n2)cc1 [Compound 29a, 2-(4-Ethoxyphenyl)-8-mercapto-9-phenylpurine-6-carboxylic acid] | 43.6 | 91 | 320 °C (dec.)
19 | CCOc1ccc(-c2nc(C(=N)NO)c3c(n2)n(-c2ccccc2OC)c(=O)n3C)cc1 [Compound 21a, 2-(4-Ethoxyphenyl)-9-(2-methoxyphenyl)-7-methyl-8-oxopurine-6-(N-hydroxy)carboximidamide] | 30 | 87 | 229 to 231 °C
20 | CCOc1ccc(-c2nc(C#N)c3nc(OC(=O)Oc4ccccc4)n(-c4ccccc4OC)c3n2)cc1 [Compound 17d, 6-Cyano-2-(4-ethoxyphenyl)-9-(2-methoxyphenyl)purin-8-yl phenyl carbonate] | 25.1 ± 0.4 | 16.9 ± 11.5 | 247 to 249 °C
21 | CCOc1ccc(-c2nc(C(=O)NN(C)C)c3[nH]c(=O)n(-c4ccccc4OC)c3n2)cc1 [Compound 20b, 2-(4-Ethoxyphenyl)-9-(2-methoxyphenyl)-8-oxopurine-6-(N′,N′-dimethyl)carbohydrazide] | 6.9 | 47.2 | 279.6 to 281 °C
